Experimental findings from article PMC3794980, “Identification of Conserved and HLA Promiscuous DENV3 T-Cell Epitopes” (PLoS Neglected Tropical Diseases, 2013) are described below.

Some targets named below: DRB1*0101 (Homo sapiens, UniProt P01903+P01911, A100R/D57E/F55L/F60I/F76Y/I96L/L162R/M171V/P40L/Q125E/R42F/V115G/Y59C); DRB1*0301 (Homo sapiens, UniProt P01903+P01911, A100K/A102G/A103R/A169T/F55Y/I96L/K41T/L162R/M171V/P40S/Q125H/Q178H/Q39Y/R42S/S66N/T106N/T262R/W38E/Y61H); DRB1*0401 (Homo sapiens, UniProt P01903+P01911, A100K/A169T/F76Y/I96L/K127E/L162R/M171V/N62H/P40V/Q125Y/R42H/S133A/S149N/S66Y/V115G/V209L/W38E); DRB1*0404 (Homo sapiens, UniProt P01903+P01911, A100R/A169T/F76Y/I96L/K127E/L162R/M171V/N62H/P40V/Q125Y/R42H/S133A/S149N/S66Y/V209L/W38E); DRB1*0405 (Homo sapiens, UniProt P01903+P01911, A100R/A169T/D86S/F76Y/I96L/K127E/L162R/M171V/N62H/P40V/Q125Y/R42H/S133A/S149N/S66Y/V115G/V209L/W38E); DRB1*0701 (Homo sapiens, UniProt P01903+P01911, A100R/A102G/A103Q/D57E/D86V/E43K/F76Y/K127E/L162R/M171V/P40G/Q125H/Q99D/R33Q/R42Y/R54Q/S133A/S66F/T210M/V115G/Y107V/Y59L/Y89S); DRB1*0802 (Homo sapiens, UniProt P01903+P01911, A100R/A103L/A169T/F76Y/H45Y/I96F/K41T/L162R/M171V/P40S/Q125H/Q178H/Q39Y/Q99D/R218S/R42G/S66Y/V115G/W38E); DRB1*0901 (Homo sapiens, UniProt P01903+P01911, A100R/A103E/D57H/D86V/F55Y/F60I/F76Y/I96F/K127E/L162R/M171V/P40D/Q125H/Q99R/R33Q/R42F/S133A/S66N/T210M/V115G/W38K/Y107V/Y59G/Y89S); DRB1*1302 (Homo sapiens, UniProt P01903+P01911, A100E/A169T/K41T/L162R/M171V/P40S/Q125H/Q178H/Q39Y/Q99D/R42S/S66N/T262R/V115G/W38E/Y61H); DRB1*1501 (Homo sapiens, UniProt P01903+P01911); DRB3*0101 (Homo sapiens, UniProt P01903+P79483); DRB5*0101 (Homo sapiens, UniProt P01903+Q30154); DRB1*1101 (Homo sapiens, UniProt P01903+P01911, A100R/A169T/A87E/I96F/K41T/L162R/M171V/P40S/Q125H/Q178H/Q39Y/Q99D/R42S/S66Y/T262R/V115G/W38E); DRB4*0101 (Homo sapiens, UniProt P01903+P13762, G164S).

What all share (test): biochemical
Holding throughout (format): binding

The mark [1] stands for this setting: competitive inhibition of radiolabeled standard peptide, '-' distinct from ND, read-out: Binding Affinity (nM) DRB1*0901.
[2] abbreviates: competitive inhibition of radiolabeled standard peptide, '-' distinct from ND, read-out: Binding Affinity (nM) DRB1*1302.
Where [3] appears, read: competitive inhibition of radiolabeled standard peptide, DRB1*0901, read-out: Binding Affinity (nM) DRB1*0901.
[4] abbreviates: competitive inhibition of radiolabeled standard peptide, DRB1*1302, read-out: Binding Affinity (nM) DRB1*1302.

Where two headings read alike, the source gives them in different places.

Sequence of DRB1*1302 (P01903 26-254 limits assumed, other chains not shown): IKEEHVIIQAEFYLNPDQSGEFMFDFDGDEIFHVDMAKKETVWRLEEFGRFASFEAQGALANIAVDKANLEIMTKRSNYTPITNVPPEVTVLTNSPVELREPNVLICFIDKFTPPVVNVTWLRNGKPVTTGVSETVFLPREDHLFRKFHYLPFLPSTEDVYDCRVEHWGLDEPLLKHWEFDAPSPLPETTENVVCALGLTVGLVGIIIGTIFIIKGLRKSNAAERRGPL
Sequence of DRB1*0301 (P01903 26-254, other chains not shown): as the sequence (P01903 26-254 limits assumed, other chains not shown) above
Sequence of DRB1*1101 (P01903 26-254, other chains not shown): as the sequence (P01903 26-254 limits assumed, other chains not shown) above

Consider `CC[C@H](C)[C@H](NC(=O)[C@H](C)NC(=O)[C@H](CC(N)=O)NC(=O)[C@H](C)N)C(=O)N[C@@H](Cc1ccccc1)C(=O)N[C@@H](CCCCN)C(=O)N[C@@H](CC(C)C)C(=O)N[C@H](C(=O)N[C@@H](Cc1ccc(O)cc1)C(=O)N[C@@H](CCC(N)=O)C(=O)N[C@@H](CC(N)=O)C(=O)N[C@@H](CCCCN)C(=O)N[C@H](C(=O)N[C@H](C(=O)N[C@@H](CCCCN)C(=O)N[C@H](C(=O)N[C@@H](CCC(N)=O)C(=O)O)C(C)C)C(C)C)C(C)C)[C@@H](C)O` [NS5 564-580], for which the IC50 worked out at 0.019 µM against DRB1*0101; 0.222 µM on DRB1*0301; 0.39 µM against DRB1*0401; 4.81 µM on DRB1*0404; 1.68 µM at DRB1*0405; 0.025 µM against DRB1*0701. The IC50 at DRB1*0802 was 2.6 µM; at DRB1*0901, 100 nM; on DRB1*1302, 11 nM; against DRB1*1501, 0.028 µM; at DRB3*0101, 0.576 µM; against DRB5*0101, 0.305 µM.

With `CC[C@H](C)[C@H](NC(=O)[C@H](CC(=O)O)NC(=O)CNC(=O)[C@@H](NC(=O)[C@@H](NC(=O)[C@@H](NC(=O)[C@@H](NC(=O)[C@H](CC(C)C)NC(=O)[C@@H](N)CCCCN)[C@@H](C)O)C(C)C)C(C)C)C(C)C)C(=O)N[C@H](C(=O)NCC(=O)N[C@H](C(=O)N[C@@H](CC(C)C)C(=O)N[C@@H](CCC(=O)O)C(=O)N[C@@H](CCC(N)=O)C(=O)O)C(C)C)[C@@H](C)CC` [NS1 85-99], the IC50 at DRB1*0301 amounted to 0.533 µM; against DRB1*0401, 0.088 µM; against DRB1*0404, 2.66 µM; at DRB1*0405, 1.4 µM; at DRB1*0701 it was 0.07 µM; at DRB1*0901 (setting [1]), 42 nM. Also, the IC50 stood at 0.807 µM on DRB1*1101; 483 nM on DRB1*1302 (setting [2]); 0.021 µM against DRB1*1501; 1.68 µM against DRB3*0101; 0.22 µM at DRB4*0101; 0.077 µM on DRB5*0101.

Turning to `CC[C@H](C)[C@H](NC(=O)[C@@H](N)CCCCN)C(=O)N1CCC[C@H]1C(=O)NCC(=O)NCC(=O)N[C@@H](C)C(=O)N[C@@H](CCSC)C(=O)N[C@@H](Cc1ccc(O)cc1)C(=O)N[C@@H](C)C(=O)N[C@@H](CC(=O)O)C(=O)N[C@@H](CC(=O)O)C(=O)N[C@H](C(=O)N[C@@H](C)C(=O)NCC(=O)N[C@@H](Cc1c[nH]c2ccccc12)C(=O)N[C@@H](CC(=O)O)C(=O)N[C@H](C(=O)O)[C@@H](C)O)[C@@H](C)O` [NS5 523-539], the IC50 on DRB1*0101 is 0.733 µM; against DRB1*0301, 0.0093 µM; on DRB1*0401 it was 0.0073 µM; against DRB1*0404, 3.13 µM; at DRB1*0405, 3.17 µM; at DRB1*0701 it was 6.56 µM. For the same compound, the IC50 came to 1.16 µM against DRB1*0802; 13200 nM on DRB1*0901 (setting [3]); 1430 nM at DRB1*1302 (setting [4]); 15.1 µM on DRB1*1501; 0.045 µM at DRB3*0101; 0.445 µM against DRB4*0101. In addition, the IC50 on DRB5*0101 came out at 4.12 µM.

With `CC(C)C[C@H](NC(=O)[C@H](CCC(=O)O)NC(=O)[C@H](CCCCN)NC(=O)[C@@H](N)CCCNC(=N)N)C(=O)N[C@@H](CC(C)C)C(=O)N[C@H](C(=O)N[C@H](C(=O)N[C@@H](Cc1ccccc1)C(=O)N[C@@H](CCCCN)C(=O)N[C@@H](CC(N)=O)C(=O)N[C@@H](C)C(=O)N[C@@H](Cc1c[nH]cn1)C(=O)N[C@@H](C)C(=O)N[C@@H](CCCCN)C(=O)N[C@@H](CCCCN)C(=O)O)[C@@H](C)O)C(C)C` [Envelope 231-245], the IC50 came out at 0.0051 µM at DRB1*0101; 2.32 µM at DRB1*0301; 0.0035 µM against DRB1*0401; 1.59 µM on DRB1*0404; 0.031 µM against DRB1*0405; 3.78 µM against DRB1*0701. For the same compound, the IC50 at DRB1*0802 was 0.0072 µM; against DRB1*0901 it was 48 nM; against DRB1*1302 it was 17200 nM; on DRB1*1501, 0.0052 µM; against DRB3*0101 it was 16.5 µM; against DRB4*0101, 0.057 µM. The compound further had an IC50 against DRB5*0101 of 0.025 µM.

`CC[C@H](C)[C@H](NC(=O)[C@H](CC(C)C)NC(=O)[C@H](CC(N)=O)NC(=O)[C@H](Cc1ccc(O)cc1)NC(=O)[C@H](CC(N)=O)NC(=O)[C@@H]1CCCN1)C(=O)N[C@H](C(=O)N[C@@H](CCSC)C(=O)N[C@@H](CC(=O)O)C(=O)N[C@@H](CCC(=O)O)C(=O)N[C@@H](C)C(=O)N[C@@H](Cc1c[nH]cn1)C(=O)N[C@@H](Cc1ccccc1)C(=O)N[C@H](C(=O)N[C@@H](CC(=O)O)C(=O)O)[C@@H](C)O)[C@@H](C)CC` [NS3 277-291]: the IC50 worked out at 0.037 µM against DRB1*0301; 1.53 µM at DRB1*0404; 0.402 µM at DRB1*0405; 2.7 µM against DRB1*0701; 0.396 µM on DRB1*0802; 2600 nM at DRB1*0901 (setting [1]). Also, the IC50 was 4.61 µM against DRB1*1101; 68 nM at DRB1*1302 (setting [2]); 1.32 µM against DRB1*1501; 0.0044 µM at DRB3*0101; 0.208 µM against DRB4*0101; 7.13 µM against DRB5*0101.

Turning to `CC[C@H](C)[C@H](NC(=O)[C@H](C)NC(=O)[C@H](CC(N)=O)NC(=O)[C@H](C)NC(=O)[C@H](CC(C)C)NC(=O)[C@H](CCC(N)=O)NC(=O)[C@H](CCCNC(=N)N)NC(=O)[C@H](Cc1c[nH]cn1)NC(=O)[C@H](CCC(=O)O)NC(=O)[C@@H]1CCCN1)C(=O)N[C@@H](Cc1ccccc1)C(=O)N[C@@H](CCCCN)C(=O)N[C@@H](CC(C)C)C(=O)N[C@H](C(=O)N[C@@H](Cc1ccc(O)cc1)C(=O)N[C@@H](CCC(N)=O)C(=O)N[C@@H](CC(N)=O)C(=O)O)[C@@H](C)O` [NS5 558-574], the IC50 against DRB1*0101 is 0.489 µM; against DRB1*0301 it was 0.586 µM; against DRB1*0401 it was 2.82 µM; against DRB1*0404, 2.65 µM; against DRB1*0405, 0.667 µM; against DRB1*0701, 0.134 µM. For the same compound, the IC50 on DRB1*0802 stood at 0.539 µM; at DRB1*0901 (setting [3]) it was 1930 nM; at DRB1*1302 (setting [4]), 1400 nM; at DRB1*1501, 0.401 µM; at DRB3*0101 it was 1.08 µM; on DRB5*0101, 0.391 µM.

Regarding `CSCC[C@H](NC(=O)[C@H](CC(C)C)NC(=O)[C@H](CCCNC(=N)N)NC(=O)[C@H](Cc1c[nH]cn1)NC(=O)[C@H](CC(=O)O)NC(=O)[C@H](CS)NC(=O)[C@H](CC(C)C)NC(=O)[C@H](CCC(N)=O)NC(=O)[C@@H](NC(=O)[C@H](Cc1ccc(O)cc1)NC(=O)[C@@H](NC(=O)[C@@H](N)CCC(=O)O)C(C)C)[C@@H](C)O)C(=O)N[C@@H](CO)C(=O)N[C@@H](C)C(=O)N[C@@H](C)C(=O)O` [NS1 173-187], the IC50 came to 0.026 µM against DRB1*0101; 0.787 µM against DRB1*0301; 0.502 µM against DRB1*0401; 1.29 µM at DRB1*0404; 1.45 µM on DRB1*0405; 1.66 µM at DRB1*0701. Also, the IC50 on DRB1*0802 was determined as 0.9 µM; on DRB1*0901 (setting [1]) it was 608 nM; on DRB1*1302 (setting [2]), 4600 nM; against DRB1*1501, 1.04 µM; on DRB3*0101, 0.057 µM; at DRB4*0101, 6.15 µM. At DRB5*0101, the IC50 was found to be 0.753 µM.
